# Assay results: the NIST ThermoML archive (doi:10.1016/j.fluid.2010.06.019)
# ± gives the expanded uncertainty stated by the source.
# Conditions: Liquid, Ebulliometric method (Recirculating still)
compound,measurement,setting,value
CCCCCCCO [heptan-1-ol],vapor or sublimation pressure,382.3 K,8.324 ± 0.015 kPa
same,vapor or sublimation pressure,388.34 K,11.05 ± 0.017 kPa
same,vapor or sublimation pressure,388.36 K,11.05 ± 0.017 kPa
same,vapor or sublimation pressure,393.65 K,13.89 ± 0.02 kPa
same,vapor or sublimation pressure,393.67 K,13.89 ± 0.02 kPa
same,vapor or sublimation pressure,398 K,16.77 ± 0.023 kPa
same,vapor or sublimation pressure,402.68 K,20.25 ± 0.027 kPa
same,vapor or sublimation pressure,407.45 K,24.53 ± 0.032 kPa
same,vapor or sublimation pressure,407.46 K,24.54 ± 0.032 kPa
same,vapor or sublimation pressure,412.21 K,29.34 ± 0.038 kPa
same,vapor or sublimation pressure,412.22 K,29.35 ± 0.038 kPa
same,vapor or sublimation pressure,416.72 K,34.76 ± 0.044 kPa
same,vapor or sublimation pressure,416.78 K,34.76 ± 0.044 kPa
same,vapor or sublimation pressure,421.2 K,40.69 ± 0.051 kPa
same,vapor or sublimation pressure,425.69 K,47.55 ± 0.049 kPa
same,vapor or sublimation pressure,425.77 K,47.57 ± 0.049 kPa
same,vapor or sublimation pressure,432.77 K,60.19 ± 0.073 kPa
same,vapor or sublimation pressure,439.55 K,74.66 ± 0.089 kPa
same,vapor or sublimation pressure,446.78 K,92.98 ± 0.11 kPa
same,vapor or sublimation pressure,446.82 K,93.13 ± 0.11 kPa
same,vapor or sublimation pressure,446.87 K,93.24 ± 0.11 kPa
same,vapor or sublimation pressure,448.6 K,98.12 ± 0.12 kPa
same,vapor or sublimation pressure,448.63 K,98.2 ± 0.12 kPa
same,vapor or sublimation pressure,450.73 K,104.37 ± 0.12 kPa
same,vapor or sublimation pressure,452.84 K,110.87 ± 0.13 kPa
same,vapor or sublimation pressure,452.97 K,111.28 ± 0.13 kPa
"CC(C)(C)CO [2,2-dimethyl-1-propanol]",vapor or sublimation pressure,345.9 K,20.26 ± 0.031 kPa
same,vapor or sublimation pressure,350 K,24.53 ± 0.035 kPa
same,vapor or sublimation pressure,353.97 K,29.35 ± 0.041 kPa
same,vapor or sublimation pressure,357.84 K,34.76 ± 0.047 kPa
same,vapor or sublimation pressure,361.57 K,40.7 ± 0.055 kPa
same,vapor or sublimation pressure,365.36 K,47.56 ± 0.064 kPa
same,vapor or sublimation pressure,371.31 K,60.19 ± 0.078 kPa
same,vapor or sublimation pressure,377 K,74.65 ± 0.095 kPa
same,vapor or sublimation pressure,383.15 K,93.23 ± 0.11 kPa
same,vapor or sublimation pressure,384.84 K,98.94 ± 0.12 kPa
CCCCCCCCCCCCCCO [1-tetradecanol],vapor or sublimation pressure,479.42 K,8.319 ± 0.013 kPa
same,vapor or sublimation pressure,487.56 K,11.05 ± 0.015 kPa
same,vapor or sublimation pressure,494.5 K,13.89 ± 0.018 kPa
same,vapor or sublimation pressure,500.44 K,16.78 ± 0.021 kPa
same,vapor or sublimation pressure,506.63 K,20.26 ± 0.025 kPa
same,vapor or sublimation pressure,513.01 K,24.53 ± 0.036 kPa
same,vapor or sublimation pressure,513.07 K,24.53 ± 0.036 kPa
same,vapor or sublimation pressure,519.11 K,29.35 ± 0.043 kPa
same,vapor or sublimation pressure,519.18 K,29.35 ± 0.043 kPa
CCCCCCCCO [octan-1-ol],vapor or sublimation pressure,397.32 K,8.355 ± 0.014 kPa
same,vapor or sublimation pressure,403.71 K,11.1 ± 0.017 kPa
same,vapor or sublimation pressure,409.14 K,13.95 ± 0.02 kPa
same,vapor or sublimation pressure,413.79 K,16.83 ± 0.023 kPa
same,vapor or sublimation pressure,418.61 K,20.33 ± 0.027 kPa
same,vapor or sublimation pressure,418.62 K,20.33 ± 0.027 kPa
same,vapor or sublimation pressure,418.63 K,20.33 ± 0.027 kPa
same,vapor or sublimation pressure,423.7 K,24.62 ± 0.032 kPa
same,vapor or sublimation pressure,428.65 K,29.45 ± 0.037 kPa
same,vapor or sublimation pressure,433.49 K,34.89 ± 0.043 kPa
same,vapor or sublimation pressure,438.12 K,40.83 ± 0.05 kPa
same,vapor or sublimation pressure,438.14 K,40.83 ± 0.05 kPa
same,vapor or sublimation pressure,442.88 K,47.73 ± 0.059 kPa
same,vapor or sublimation pressure,450.34 K,60.37 ± 0.072 kPa
same,vapor or sublimation pressure,457.52 K,74.88 ± 0.088 kPa
same,vapor or sublimation pressure,465.25 K,93.42 ± 0.11 kPa
same,vapor or sublimation pressure,465.29 K,93.54 ± 0.11 kPa
CCCCCCO [hexan-1-ol],vapor or sublimation pressure,366.67 K,8.323 ± 0.015 kPa
same,vapor or sublimation pressure,372.64 K,11.06 ± 0.017 kPa
same,vapor or sublimation pressure,377.56 K,13.87 ± 0.02 kPa
same,vapor or sublimation pressure,381.8 K,16.77 ± 0.024 kPa
same,vapor or sublimation pressure,381.81 K,16.77 ± 0.024 kPa
same,vapor or sublimation pressure,386.17 K,20.26 ± 0.028 kPa
same,vapor or sublimation pressure,390.77 K,24.54 ± 0.033 kPa
same,vapor or sublimation pressure,390.78 K,24.54 ± 0.033 kPa
same,vapor or sublimation pressure,395.23 K,29.35 ± 0.039 kPa
same,vapor or sublimation pressure,399.57 K,34.77 ± 0.045 kPa
same,vapor or sublimation pressure,403.73 K,40.7 ± 0.052 kPa
same,vapor or sublimation pressure,407.98 K,47.57 ± 0.061 kPa
same,vapor or sublimation pressure,414.61 K,60.2 ± 0.074 kPa
same,vapor or sublimation pressure,420.99 K,74.69 ± 0.091 kPa
same,vapor or sublimation pressure,427.85 K,93.19 ± 0.11 kPa
same,vapor or sublimation pressure,427.9 K,93.26 ± 0.11 kPa
same,vapor or sublimation pressure,429.52 K,98.12 ± 0.12 kPa
same,vapor or sublimation pressure,429.54 K,98.16 ± 0.12 kPa
same,vapor or sublimation pressure,431.85 K,105.46 ± 0.12 kPa
same,vapor or sublimation pressure,432.25 K,106.75 ± 0.12 kPa
same,vapor or sublimation pressure,432.32 K,106.98 ± 0.13 kPa
